# Assay results from patent US20160242414A1, “SAFENED HERBICIDAL COMPOSITIONS CONTAINING HALAUXIFEN OR 4-AMINO-3-CHLORO-5-FLUORO-6-(4-CHLORO-2-FLUORO-3-METHOXYPHENYL) PYRIDINE-2-CARBOXYLIC ACID AND METHODS OF USE THEREOF IN TURF” (Dow AgroSciences LLC, priority 2015, published 2016).
# What was measured:
# [1] = system: perennial ryegrass (LOLPE); experiment: Postemergence turf injury field trial, perennial ryegrass, with Activator 90 adjuvant
# Experimental: (§1) For the ryegrass and tall fescue experiments, research trials were conducted in Indiana at the William H Daniel Turfgrass Research center in West Lafayette, Ind. on well established 10 year old stands of perennial ryegrass and tall fescue that were maintained as a home lawn with regular fertilization, irrigation and a 7.5 cm mowing height. To begin the trial, the research areas were sub-divided into 3 replications of 2.3 m^2 plots in a completely randomized block design for each grass species and spray mixtures were prepared just prior to the treatment by mixing the formulations with water.
# Herbicide treatments were applied to ryegrass and tall fescue turfgrass plots in spray applications that included the spray adjuvant Activator 90 at 0.25% (v/v). The plots were treated with a hand held CO2 backpack sprayer equipped with a 3 liter bottle that delivered 804 liters/ha of spray to each plot using a flat fan nozzle. No irrigation, rainfall or mowing occurred until 24 hours after the application. The temperature at the time of the application was 24° C. and the wind speed averaged 4.8 km/hr. There was no cloud cover during the application and the soil was moist. Visual evaluations were made of turf injury for each plot on a 0%-100% scale where 0%=no injury and 100%=death at 0, 7, 14, 28 and 42 days after the application.
# The following equation was used to calculate the expected activity of mixtures containing two active ingredients, A and B:
# Expected=A+B−(A×B/100) • A=observed efficacy of active ingredient A at the same concentration as used in the mixture; • B=observed efficacy of active ingredient B at the same concentration as used in the mixture.
# tall fescue (FESAR) = experiment: Postemergence turf injury field trial, tall fescue, with Activator 90 adjuvant; details: 28 days after application
# Experimental: as §1
# Herbicide treatments were applied to ryegrass and tall fescue turfgrass plots in spray applications that included the spray adjuvant Activator 90 at 0.25% (v/v). The plots were treated with a hand held CO2 backpack sprayer equipped with a 3 liter bottle that delivered 804 liters/ha of spray to each plot using a flat fan nozzle. No irrigation, rainfall or mowing occurred until 24 hours after the application. The temperature at the time of the application was 24° C. and the wind speed averaged 4.8 km/hr. There was no cloud cover during the application and the soil was moist. Visual evaluations were made of turf injury for each plot on a 0%-100% scale where 0%=no injury and 100%=death at 0, 7, 14, 28 and 42 days after the application. […]
compound,measurement,setting,value
"CNC.O=C(O)COc1ccc(Cl)cc1Cl [2,4-D DMA, 2,4-D dimethyl ammonium]",Observed Injury,"[1]; 28 days after application, 2,4-D DMA 840 g ae/ha",3%
same,Observed Injury,"[1]; 28 days after application, 2,4-D DMA 1120 g ae/ha",7%
same,Observed Injury,"[1]; 28 days after application, 2,4-D DMA 1680 g ae/ha",0%
same,Observed Injury,"[1]; 28 days after application, 2,4-D DMA 2520 g ae/ha",10%
same,Observed Injury,"[1]; 42 days after application, 2,4-D DMA 840 g ae/ha",0%
same,Observed Injury,"[1]; 42 days after application, 2,4-D DMA 1120 g ae/ha",0%
same,Observed Injury,"[1]; 42 days after application, 2,4-D DMA 1680 g ae/ha",0%
same,Observed Injury,"[1]; 42 days after application, 2,4-D DMA 2520 g ae/ha",0%
"CNC.COc1c(Cl)ccc(Cl)c1C(=O)O [Dicamba DMA, dicamba dimethyl ammonium]",Observed Injury,tall fescue (FESAR); dicamba DMA 280 g ae/ha,0%
same,Observed Injury,"[1]; 28 days after application, dicamba DMA 280 g ae/ha",7%
"COC(=O)c1nc(-c2ccc(Cl)c(OC)c2F)cc(N)c1Cl [Halauxifen-Methyl, halauxifen-methyl]",Observed Injury,tall fescue (FESAR); halauxifen-methyl 30 g ae/ha,32%
same,Observed Injury,"[1]; 28 days after application, halauxifen-methyl 15 g ae/ha, 0%=no injury, 100%=death",23%
same,Observed Injury,"[1]; 28 days after application, halauxifen-methyl 30 g ae/ha",33%
same,Observed Injury,"[1]; 28 days after application, halauxifen-methyl 45 g ae/ha",40%
same,Observed Injury,"[1]; 42 days after application, halauxifen-methyl 15 g ae/ha",8%
same,Observed Injury,"[1]; 42 days after application, halauxifen-methyl 30 g ae/ha",12%
same,Observed Injury,"[1]; 42 days after application, halauxifen-methyl 45 g ae/ha",35%
